One may read the Kd as the free concentration of one partner at which half of the binding sites on the other are occupied at equilibrium, for simple one-to-one binding. Higher therefore signals a looser complex.

Structures can show the parent of a compound that is named as a salt.

Assay [1] addresses T1, Polyphosphate kinase-1 (PPK-1, Rv2984) (Mycobacterium tuberculosis, UniProt P9WHV9).
T1 sequence (P9WHV9 1-742): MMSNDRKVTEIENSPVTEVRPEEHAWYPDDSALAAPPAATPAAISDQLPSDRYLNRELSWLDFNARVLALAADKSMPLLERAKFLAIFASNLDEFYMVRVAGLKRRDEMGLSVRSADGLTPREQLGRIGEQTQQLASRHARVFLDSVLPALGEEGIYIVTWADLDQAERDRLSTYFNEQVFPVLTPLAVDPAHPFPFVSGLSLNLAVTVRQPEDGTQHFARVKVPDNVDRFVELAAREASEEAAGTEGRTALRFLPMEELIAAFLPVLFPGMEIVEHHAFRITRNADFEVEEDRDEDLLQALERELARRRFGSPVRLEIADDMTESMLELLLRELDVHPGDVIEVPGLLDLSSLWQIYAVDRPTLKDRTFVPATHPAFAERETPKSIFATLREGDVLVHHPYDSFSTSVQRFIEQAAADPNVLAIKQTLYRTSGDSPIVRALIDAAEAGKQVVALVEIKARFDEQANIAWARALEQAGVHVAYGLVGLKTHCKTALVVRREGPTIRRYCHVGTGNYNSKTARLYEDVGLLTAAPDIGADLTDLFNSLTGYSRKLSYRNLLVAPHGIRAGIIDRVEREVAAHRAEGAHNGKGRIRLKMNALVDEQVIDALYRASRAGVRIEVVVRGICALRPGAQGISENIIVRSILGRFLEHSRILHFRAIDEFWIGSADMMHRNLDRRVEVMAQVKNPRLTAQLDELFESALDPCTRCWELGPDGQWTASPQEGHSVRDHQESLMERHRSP
Description: microscale thermophoresis. It counts as binding. In general terms: MST reads how a fluorescent partner responds to local heating, with and without ligand.

Assay [2] deals with T1, Polyphosphate kinase-1 (PPK-1, Rv2984). The assay is classed as biochemical.

Consider `O=C(c1ccc(OCCN2CCCCC2)cc1)c1c(-c2ccc(O)cc2)sc2cc(O)ccc12` [Cpd-11, raloxifene hydrochloride], for which, in assay [1], binding was put at a Kd of 40 µM.
For the compound `O=C1OC2(c3ccccc31)c1ccc(O)c(O)c1Oc1c2ccc(O)c1O` [gallein], the “inhibition of PPK-1 ATP and polyP synthesis (SI Appendix Fig. S6 A-C)” value in assay [2] is “gallein inhibited both ATP and polyP synthesis activity associated with the PPK-1 homolog from M. tuberculosis”.

Source of the values: publication PMC10786269 (Proceedings of the National Academy of Sciences of the …, 2024).
